According to ChEMBL document CHEMBL1201862, “PubChem BioAssay data set” (2004):
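Grown in 96-well plates, cells were treated for 48 hours with each compound at five concentrations. Insufficient inhibition: endpoint recorded as highest concentration tested. GI50 is the concentration that inhibits growth by half.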 Activity calls are given as the source filed them. Cut-off read from the data, not from the text of the source: active = GI50 up to about 1.1 µM and inactive = higher.

Tests used:
Test in all cases: NCI tumour cell line growth inhibition, 48 h
NCI-H522 = tested on: NCI-H522
MOLT-4 = tested on: MOLT-4
UACC-257 = tested on: UACC-257
Malme-3M = tested on: Malme-3M
SF-268 = tested on: SF-268
SF-295 = tested on: SF-295
T47D = tested on: T47D
SK-OV-3 = tested on: SK-OV-3
SR = tested on: SR
MCF7 = tested on: MCF7
786-0 = tested on: 786-0
SK-MEL-28 = tested on: SK-MEL-28
DU-145 = tested on: DU-145
SF-539 = tested on: SF-539
NCI-H226 = tested on: NCI-H226
NCI-H460 = tested on: NCI-H460
HOP-62 = tested on: HOP-62
MDA-MB-231 = tested on: MDA-MB-231

Structure (SMILES)	GI50 (NCI-H522)	GI50 (MOLT-4)	GI50 (UACC-257)	GI50 (Malme-3M)	GI50 (SF-268)	GI50 (SF-295)	GI50 (T47D)	GI50 (SK-OV-3)	GI50 (SR)	GI50 (MCF7)	GI50 (786-0)	GI50 (SK-MEL-28)	GI50 (DU-145)	GI50 (SF-539)	GI50 (NCI-H226)	GI50 (NCI-H460)	GI50 (HOP-62)	GI50 (MDA-MB-231)
Fc1ccc(F)c(/C=N/C23CC4CC(CC(C4)C2)C3)c1	> 10 µM (inactive)	> 10 µM (inactive)	> 10 µM (inactive)	> 10 µM (inactive)	> 10 µM (inactive)	> 10 µM (inactive)	> 10 µM (inactive)	> 10 µM (inactive)	> 10 µM (inactive)	> 10 µM (inactive)	> 10 µM (inactive)	> 10 µM (inactive)	> 10 µM (inactive)	> 10 µM (inactive)	> 10 µM (inactive)	> 10 µM (inactive)	> 10 µM (inactive)	
CSc1nc(NC(C)C)c2c(n1)Sc1nc3ccccc3n1N=C2	22.9 µM (inactive)	9.84 µM (inactive)	29.1 µM (inactive)	9.18 µM (inactive)	25.7 µM (inactive)	6.03 µM (inactive)		11.1 µM (inactive)	13.2 µM (inactive)	20.3 µM (inactive)	4.23 µM (inactive)	> 100 µM (inactive)	12.7 µM (inactive)		0.57 µM (active)	6.34 µM (inactive)	5.66 µM (inactive)	11.1 µM (inactive)
CC(C)=c1sc(=C(C)C)c2c1=NC(C)(C)N=2	32.9 µM (inactive)	42.4 µM (inactive)	30.9 µM (inactive)	> 100 µM (inactive)	64.9 µM (inactive)	75.5 µM (inactive)	52.8 µM (inactive)	> 100 µM (inactive)		48.3 µM (inactive)	> 100 µM (inactive)	73.6 µM (inactive)	58.3 µM (inactive)	> 100 µM (inactive)		43.7 µM (inactive)	> 100 µM (inactive)	> 100 µM (inactive)
CCc1nn(S(=O)(=O)c2ccc(C)cc2)c2c1CS(=O)(=O)CC2		> 100 µM (inactive)	> 100 µM (inactive)		37.1 µM (inactive)	66.8 µM (inactive)	> 100 µM (inactive)	69.3 µM (inactive)		> 100 µM (inactive)	> 100 µM (inactive)	> 100 µM (inactive)	> 100 µM (inactive)	91.4 µM (inactive)		> 100 µM (inactive)	84.1 µM (inactive)	> 100 µM (inactive)
CC(CN(C)C)C(C#N)(c1ccccc1)c1ccccc1 (stereo unspecified)	> 100 µM (inactive)	> 100 µM (inactive)	> 100 µM (inactive)	> 100 µM (inactive)	> 100 µM (inactive)	> 100 µM (inactive)	> 100 µM (inactive)	> 100 µM (inactive)		> 100 µM (inactive)	> 100 µM (inactive)	89.1 µM (inactive)	> 100 µM (inactive)	> 100 µM (inactive)	> 100 µM (inactive)	> 100 µM (inactive)	> 100 µM (inactive)	> 100 µM (inactive)
COC(=O)C1CC(C=O)=C(SC)N1 (stereo unspecified)	> 50 µM (inactive)	> 50 µM (inactive)	> 50 µM (inactive)	> 50 µM (inactive)	> 50 µM (inactive)	> 50 µM (inactive)		> 50 µM (inactive)		> 50 µM (inactive)	> 50 µM (inactive)	> 50 µM (inactive)	> 50 µM (inactive)			> 50 µM (inactive)	> 50 µM (inactive)	> 50 µM (inactive)
CC1=C(Cl)C[C@@H](/C(C)=C\Cl)O[C@@]1(O)C(Br)Br	18.9 µM (inactive)	15.6 µM (inactive)	35.3 µM (inactive)	24.5 µM (inactive)	32.7 µM (inactive)	> 100 µM (inactive)		> 100 µM (inactive)	19.5 µM (inactive)	18.2 µM (inactive)	33.7 µM (inactive)	59.8 µM (inactive)	19.9 µM (inactive)	33.8 µM (inactive)		41.1 µM (inactive)	> 100 µM (inactive)	19.5 µM (inactive)
CC(=O)Nc1ccc(C(=O)NN2C(=O)CSC2c2ccccc2)cc1 (stereo unspecified)		> 100 µM (inactive)	> 100 µM (inactive)		> 100 µM (inactive)	> 100 µM (inactive)	> 100 µM (inactive)	> 100 µM (inactive)		> 100 µM (inactive)	> 100 µM (inactive)	> 100 µM (inactive)	> 100 µM (inactive)	> 100 µM (inactive)	> 100 µM (inactive)	> 100 µM (inactive)	> 100 µM (inactive)	> 100 µM (inactive)
O=NN1C(c2ccccc2)CC(=NO)CC1c1ccccc1 (stereo unspecified)	> 100 µM (inactive)	46.3 µM (inactive)	> 100 µM (inactive)	> 100 µM (inactive)	> 100 µM (inactive)	> 100 µM (inactive)	> 100 µM (inactive)	> 100 µM (inactive)		> 100 µM (inactive)	> 100 µM (inactive)	> 100 µM (inactive)	> 100 µM (inactive)	> 100 µM (inactive)	> 100 µM (inactive)	> 100 µM (inactive)	> 100 µM (inactive)	> 100 µM (inactive)
S=C1SCN(Cc2ccco2)CN1c1ccc(Br)cc1	10.3 µM (inactive)	17.4 µM (inactive)	15.6 µM (inactive)	17.4 µM (inactive)	13.2 µM (inactive)	6.98 µM (inactive)	20.1 µM (inactive)	25.1 µM (inactive)	7.6 µM (inactive)	14.6 µM (inactive)	17.1 µM (inactive)	17.8 µM (inactive)	26.2 µM (inactive)	14.5 µM (inactive)	25.2 µM (inactive)	7.33 µM (inactive)	23.8 µM (inactive)	
COc1c(C(CC(C)C)OC(C)=O)ccc2c1C(=O)OCc1cc(C)cc(O)c1O2 (stereo unspecified)	13.2 µM (inactive)	12.8 µM (inactive)	8.47 µM (inactive)	16.1 µM (inactive)	14.3 µM (inactive)	14.4 µM (inactive)	11.3 µM (inactive)	15.8 µM (inactive)	> 100 µM (inactive)	11.8 µM (inactive)	15.5 µM (inactive)	15.8 µM (inactive)	12.5 µM (inactive)	18.2 µM (inactive)	14.9 µM (inactive)	12.6 µM (inactive)	18.7 µM (inactive)	
COC(=O)C1=C(O)C(C(=O)OC)[C@]2(O)[C@H](C(=O)OC)[C@H]1C[C@@H](c1ccccc1OC)[C@H]2C(=O)OC (stereo partly specified)	1.84 µM (inactive)	3.59 µM (inactive)	9.64 µM (inactive)	2.83 µM (inactive)	4.53 µM (inactive)	6.08 µM (inactive)	10.4 µM (inactive)	4.33 µM (inactive)	1.93 µM (inactive)		7.76 µM (inactive)	7.87 µM (inactive)	5.07 µM (inactive)	2.71 µM (inactive)	5.4 µM (inactive)	4.51 µM (inactive)	12.3 µM (inactive)	9.55 µM (inactive)
Oc1nc2ccccc2c(O)c1Cc1ccccc1	> 100 µM (inactive)	> 100 µM (inactive)	> 100 µM (inactive)	> 100 µM (inactive)	> 100 µM (inactive)	> 100 µM (inactive)			> 100 µM (inactive)	> 100 µM (inactive)	> 100 µM (inactive)	> 100 µM (inactive)	> 100 µM (inactive)	> 100 µM (inactive)	> 100 µM (inactive)	> 100 µM (inactive)	> 100 µM (inactive)	> 100 µM (inactive)
COC(=O)[C@H](Cc1ccccc1)NC(=O)N(CCC#N)CCN(C(=O)N[C@@H](Cc1ccccc1)C(=O)OC)c1ccccc1		16.6 µM (inactive)	20 µM (inactive)		22.8 µM (inactive)	33.8 µM (inactive)	20.2 µM (inactive)	46.8 µM (inactive)		38.5 µM (inactive)	9.2 µM (inactive)	18.2 µM (inactive)	29.1 µM (inactive)	20.8 µM (inactive)	30 µM (inactive)		41.1 µM (inactive)	26.7 µM (inactive)
CCOC(=O)C1=C(C)N(c2ccc(Cl)cc2)C2(O)C=CC(O)=C3C(=O)c4ccccc4C(=O)C312 (stereo unspecified)	2.21 µM (inactive)	2.43 µM (inactive)	18.2 µM (inactive)	0.483 µM (active)	1.67 µM (inactive)	6.93 µM (inactive)	3.45 µM (inactive)	10.6 µM (inactive)		2.72 µM (inactive)	2.12 µM (inactive)		8.09 µM (inactive)	4.16 µM (inactive)		5.38 µM (inactive)	5.2 µM (inactive)	10.9 µM (inactive)
Nc1nc2c(ncn2CC2CCC(CO)C2)c(=O)[nH]1 (stereo unspecified)			> 100 µM (inactive)		> 100 µM (inactive)	> 100 µM (inactive)	> 100 µM (inactive)	> 100 µM (inactive)		> 100 µM (inactive)	> 100 µM (inactive)	> 100 µM (inactive)	> 100 µM (inactive)	> 100 µM (inactive)	> 100 µM (inactive)		> 100 µM (inactive)	> 100 µM (inactive)
NC1c2c(Cl)sc(Cl)c2C(=O)C1O (stereo unspecified)	18.2 µM (inactive)	23 µM (inactive)	43.4 µM (inactive)	37.9 µM (inactive)	43.1 µM (inactive)	32.6 µM (inactive)	> 100 µM (inactive)	> 100 µM (inactive)		18.9 µM (inactive)	94.6 µM (inactive)		> 100 µM (inactive)	76.2 µM (inactive)	> 100 µM (inactive)	46 µM (inactive)		37.8 µM (inactive)
